The text below walks through data of patent publication US7473783B2, “Bicyclic pyrazolo protein kinase modulators” (SGX Pharmaceuticals, Inc., priority 2003, dated 2009).

Changes are numbered by the printed parent chain.

Format in all cases: biochemical
The target of one experiment is T1, cAbl (Mus musculus, UniProt P00520).
T1 construct: 2 μg/mL Abl kinase domain; made in house; host or cells: E. coli BL21(DE3) strains
T1 sequence (P00520 242-493 limits assumed): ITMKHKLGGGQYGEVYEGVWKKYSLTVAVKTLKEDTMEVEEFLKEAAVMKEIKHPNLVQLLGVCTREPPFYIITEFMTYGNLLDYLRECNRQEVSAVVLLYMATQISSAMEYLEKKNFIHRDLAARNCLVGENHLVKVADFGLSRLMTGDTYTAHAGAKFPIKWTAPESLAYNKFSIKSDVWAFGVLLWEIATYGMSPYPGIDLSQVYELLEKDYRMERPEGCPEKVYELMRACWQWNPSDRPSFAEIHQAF
Nature of the experiment: Abl kinase assay (PK/LDH coupled, NADH loss at 340 nm). To be noted: Table 7; 10 μM ATP. The text has this:
(§1) Although this example presents the use of the kinase domain of a mutant form of Abl T315I 0-P, the kinase assays may use various forms of mutant and wild type Abl, including, for example, the entire molecule, the kinase domain, or a portion thereof. The kinases used in the assays may also be of varying phophorylation states. In the present example, a mutant kinase at a zero phosphorylation state was used.
(§2) Materials: Abl substrate peptide=EAIYAAPFAKKK-OH (Biopeptide, SD CA); βNADH (Sigma CAT#N-8129, FW=709.4); 2M MgCl2; 1M HEPES buffer, pH 7.5; Phosphoenolpyruvate=PEP (Sigma CAT#P-7002, FW=234); Lactate dehydrogenase=LDH (Worthington Biochemical CAT#2756); Pyruvate Kinase=PK (Sigma CAT#P-9136); ATP (Sigma CAT#A-3377, FW=551); Greiner 384-well UV star plate; and Purified and unphosphorylated T315I Abl kinase domain (clone 5582d42PPt6p6).
(§3) Stock Solutions: 10 mM NADH (7.09 mg/mL in miliQH2O) make fresh daily; 10 mM Abl substrate peptide (13.4 mg/mL in miliQH2O) store at −20° C.; 100 mM HEPES buffer, pH 7.5 (5 mL 1M stock+45 mL miliQH2O); 100 mM MgCl2 (5 mL 2M MgCl2+95 ml dH2O); 100 mM PEP (23.4 mg/mL in dH2O) store at −20° C.; 10 mM ATP (5.51 mg/mL in dH2O) store at −20° C. (dilute 50 μL into total of 10 mL miliQH2O daily=50 μM ATP working stock); 1000 U/mL PK (U/mg varies with lot) flash-freeze under liquid N2 and store at −80° C.; and 1000 U/mL LDH (U/mg varies with lot) flash-freeze under liquid N2 and store at −80° C.
(§4) Standard Assay Setup for 384-well format (50 μl reaction): 300 μM NADH; 10 mM MgCl2; 2 mM PEP; 45 U/mL PK; 60 U/mL LDH; 200 μM Abl substrate peptide; 2.5 μL test compound (in DMSO); 2 μg/mL Abl kinase domain; 10 μM ATP; 100 mM HEPES buffer; QS with miliQ dH2O to 50 μL; Positive controls contained DMSO with no test compound. Negative controls contained 5 μl of 0.5M EDTA (50 mM in the assay). The dephosphorylated form of the c-Abl T315I mutant were used in the biochemical screening assays. The kinase reaction was initiated at time t=0 by the addition of ATP.
(§5) The activity was measured by following the time-dependent loss of NADH by absorbance spectroscopy at 340 nm. The linear portion of the resulting progress curve was then be analyzed by linear regression to get the activity in absorbance units/time, reported as the slope of that best fit line (moles/unit time can be calculated from using molar extinction coefficient for NADH at 340 nm, 6250M^−1cm^−1).
(§6) Data was analyzed using the equation: Z′=1-[3*(σ++σ−)/|μ+−μ−|], where μ denotes the mean and σ the standard deviation. The subscript designates positive or negative controls. The Z′ score for a robust screening assay should be ≧0.50. The typical threshold=μ+−3*σ+. Any value that falls below the threshold was designated a “hit”.
(§7) Dose response was analyzed using the equation: y=min+{(max−min)/(1+10^[compound]-logIC50)}, where y is the observed initial slope, max=the slope in the absence of inhibitor, min=the slope at infinite inhibitor, and the IC50 is the [compound] that corresponds to ½ the total observed amplitude (Amplitude=max−min).
(§8) To measure modulation, activation, or inhibition of AblKD, a test compound was added to the assay at a range of concentrations. Inhibitors may inhibit AblKD activity at an IC50 in the micromolar range, the nanomolar range, and, for example, in the subnanomolar range.
(§9) To measure the binding of a compound to Abl or AblKD, a test kit manufactured by Discoverx (Fremont, Calif.), ED—Staurosporine NSIP™ Enzyme Binding Assay Kit (see U.S. Pat. No. 5,643,734) was used.

Experiment [1] has as its target T2, Abl T315I kinase domain, unphosphorylated (Mus musculus, UniProt P00520, T315I).
T2 construct: Purified and unphosphorylated T315I Abl kinase domain (clone 5582d42PPt6p6); made in house; host or cells: E. coli BL21(DE3) pSA0145, phosphatase co-expression plasmid
T2 sequence (P00520 242-493 T315I limits assumed): T1 sequence (P00520 242-493 limits assumed) with T74I
Nature of the experiment: Abl T315I kinase assay (PK/LDH coupled, NADH loss at 340 nm). To be noted: Table 8; 10 μM ATP; zero phosphorylation state.
Source text: as §1, §2, §3, §4, §5, §6, §7, §8, §9

In another experiment the target is T3, Abl Y393F (Mus musculus, UniProt P00520, Y393F).
T3 construct: 2 μg/mL Abl kinase domain; made in house
T3 sequence (P00520 242-493 Y393F limits assumed): T1 sequence (P00520 242-493 limits assumed) with Y152F
Nature of the experiment: Abl Y393F kinase assay. Particulars: Table 8.
Source text: as §1, §2, §3, §4, §5, §6, §7, §8, §9

For a further experiment, the target named is T4, wild type MET kinase (Homo sapiens, UniProt P08581).
T4 construct: made in house
Put plainly: MET Kinase-Glo assay. To be noted: Table 9, 60 minutes at RT. The text has this:
(§10) Although this example presents the use of wild type MET and RON […], the kinase assays may use various forms of mutant and wild type RON or MET, including, for example, the entire intracellular domain, the kinase domain, or a portion thereof. The kinases used in the assays may also be of varying phophorylation states. In the case of RON, a mutant kinase at a zero phosphorylation state was used.
(§11) For the MET and RON assays, the Kinase-Glo® assay system (Promega) was used, which employs firefly luciferase to detect the amount of ATP following a kinase reaction. This assay system has two steps. First, the kinase reaction is run for a designated period of time. Next, an equivalent volume of Kinase-Glo reagent is added to quench the kinase reaction and detect the ATP remaining in the sample. The total light output is read by a plate-reading luminometer and the resulting signal is stable for 4 hours. Inhibition of kinase activity translates into lower ATP consumption and thus higher light output during the detection step.
(§12) Materials: Poly EY 4:1 (Sigma); MgCl2 (2M stock available from Lab Support); HEPES buffer, pH 7.5; Bovine serum albumin (Roche 92423420); ATP (Sigma CAT#A-3377, FW=551); White Costar 384-well flat-bottom plate (VWR 29444-088); and SGX RON kinase clone (M1254T activation loop mutant) or SGX MET kinase clone.
MET enzyme mix: 100 mM HEPES pH 7.5, 10 mM MgCl2, 0.3 mg/mL poly EY, 0.1% BSA, and 0.4 μg/mL MET kinase.
(§13) To each well of a multiwell plate was added 15 μL of the enzyme mix, 1 μL of compound at 20-times the desired final assay concentration (or DMSO for positive controls or 200 μM staurosporine for negative controls), and 4 μL of 50 μM ATP to start the reaction. The kinase was reaction to allowed to proceed for 60 minutes at RT for the MET assay. For the RON assay, the reaction proceeded at RT for 60 minutes to 120 minutes (depending on enzyme prep). 20 μL Kinase-Glo reagent was then added to each well. The reagent was incubated for at least 10 minutes before plate reading.
(§14) Data anlaysis was performed using methods similar to those described above in the Abl assay (Firepower®, Exegetix).
On the technique in general: Kinase-Glo measures the ATP left after a reaction by luminescence.

The target of experiment [2] is T5, RON kinase (M1254T activation loop mutant) (Homo sapiens, UniProt Q04912, M1254T).
T5 construct: made in house
Nature of the experiment: RON Kinase-Glo assay. To be noted: Table 9, 60 minutes to 120 minutes at RT.
Source text: as §10, §11, §12
RON enzyme mix: 100 mM HEPES pH 7.5, 10 mM MgCl2, 1 mg/mL poly EY, 0.1% BSA, and 3-5 μg/mL RON kinase (depending on enzyme prep).
as §13, §14

One may read the IC50 as the midpoint of a concentration-inhibition curve. A higher IC50 goes with lower potency.

T4 sequence (P08581 25-1390): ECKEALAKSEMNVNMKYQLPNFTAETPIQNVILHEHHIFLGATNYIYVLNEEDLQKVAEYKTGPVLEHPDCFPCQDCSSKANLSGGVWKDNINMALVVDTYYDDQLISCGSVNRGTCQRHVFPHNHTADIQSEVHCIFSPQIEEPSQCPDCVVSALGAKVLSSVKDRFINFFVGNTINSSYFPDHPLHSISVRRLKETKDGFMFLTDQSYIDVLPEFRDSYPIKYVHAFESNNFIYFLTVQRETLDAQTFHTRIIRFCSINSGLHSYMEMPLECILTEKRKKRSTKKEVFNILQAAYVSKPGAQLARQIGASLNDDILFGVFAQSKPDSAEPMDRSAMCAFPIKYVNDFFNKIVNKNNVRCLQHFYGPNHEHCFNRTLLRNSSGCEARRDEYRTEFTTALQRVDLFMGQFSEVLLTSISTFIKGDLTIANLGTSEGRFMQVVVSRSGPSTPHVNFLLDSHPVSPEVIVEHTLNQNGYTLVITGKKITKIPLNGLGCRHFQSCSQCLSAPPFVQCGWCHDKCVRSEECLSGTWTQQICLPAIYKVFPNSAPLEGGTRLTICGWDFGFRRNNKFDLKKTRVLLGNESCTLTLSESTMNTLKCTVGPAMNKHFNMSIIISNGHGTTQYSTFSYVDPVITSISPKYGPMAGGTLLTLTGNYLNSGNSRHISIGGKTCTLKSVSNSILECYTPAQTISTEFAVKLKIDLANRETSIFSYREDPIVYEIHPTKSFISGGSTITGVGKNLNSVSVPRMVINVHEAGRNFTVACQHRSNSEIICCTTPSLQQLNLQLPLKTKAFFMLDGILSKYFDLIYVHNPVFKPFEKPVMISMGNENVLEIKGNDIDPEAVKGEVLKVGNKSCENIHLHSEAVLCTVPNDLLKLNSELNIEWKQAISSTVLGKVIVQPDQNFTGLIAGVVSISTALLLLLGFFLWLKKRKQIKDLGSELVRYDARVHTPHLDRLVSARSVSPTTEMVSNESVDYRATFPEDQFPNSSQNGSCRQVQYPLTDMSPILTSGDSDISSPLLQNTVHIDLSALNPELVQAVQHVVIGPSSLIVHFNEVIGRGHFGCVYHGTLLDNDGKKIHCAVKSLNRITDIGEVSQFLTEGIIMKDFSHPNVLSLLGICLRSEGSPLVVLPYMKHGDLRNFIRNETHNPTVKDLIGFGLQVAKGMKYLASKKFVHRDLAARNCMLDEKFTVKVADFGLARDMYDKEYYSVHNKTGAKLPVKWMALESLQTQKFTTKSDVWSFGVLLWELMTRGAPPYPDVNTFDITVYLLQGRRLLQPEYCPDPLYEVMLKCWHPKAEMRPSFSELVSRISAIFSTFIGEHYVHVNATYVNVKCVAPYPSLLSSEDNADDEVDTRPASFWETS
T5 sequence (Q04912 25-1400 M1254T): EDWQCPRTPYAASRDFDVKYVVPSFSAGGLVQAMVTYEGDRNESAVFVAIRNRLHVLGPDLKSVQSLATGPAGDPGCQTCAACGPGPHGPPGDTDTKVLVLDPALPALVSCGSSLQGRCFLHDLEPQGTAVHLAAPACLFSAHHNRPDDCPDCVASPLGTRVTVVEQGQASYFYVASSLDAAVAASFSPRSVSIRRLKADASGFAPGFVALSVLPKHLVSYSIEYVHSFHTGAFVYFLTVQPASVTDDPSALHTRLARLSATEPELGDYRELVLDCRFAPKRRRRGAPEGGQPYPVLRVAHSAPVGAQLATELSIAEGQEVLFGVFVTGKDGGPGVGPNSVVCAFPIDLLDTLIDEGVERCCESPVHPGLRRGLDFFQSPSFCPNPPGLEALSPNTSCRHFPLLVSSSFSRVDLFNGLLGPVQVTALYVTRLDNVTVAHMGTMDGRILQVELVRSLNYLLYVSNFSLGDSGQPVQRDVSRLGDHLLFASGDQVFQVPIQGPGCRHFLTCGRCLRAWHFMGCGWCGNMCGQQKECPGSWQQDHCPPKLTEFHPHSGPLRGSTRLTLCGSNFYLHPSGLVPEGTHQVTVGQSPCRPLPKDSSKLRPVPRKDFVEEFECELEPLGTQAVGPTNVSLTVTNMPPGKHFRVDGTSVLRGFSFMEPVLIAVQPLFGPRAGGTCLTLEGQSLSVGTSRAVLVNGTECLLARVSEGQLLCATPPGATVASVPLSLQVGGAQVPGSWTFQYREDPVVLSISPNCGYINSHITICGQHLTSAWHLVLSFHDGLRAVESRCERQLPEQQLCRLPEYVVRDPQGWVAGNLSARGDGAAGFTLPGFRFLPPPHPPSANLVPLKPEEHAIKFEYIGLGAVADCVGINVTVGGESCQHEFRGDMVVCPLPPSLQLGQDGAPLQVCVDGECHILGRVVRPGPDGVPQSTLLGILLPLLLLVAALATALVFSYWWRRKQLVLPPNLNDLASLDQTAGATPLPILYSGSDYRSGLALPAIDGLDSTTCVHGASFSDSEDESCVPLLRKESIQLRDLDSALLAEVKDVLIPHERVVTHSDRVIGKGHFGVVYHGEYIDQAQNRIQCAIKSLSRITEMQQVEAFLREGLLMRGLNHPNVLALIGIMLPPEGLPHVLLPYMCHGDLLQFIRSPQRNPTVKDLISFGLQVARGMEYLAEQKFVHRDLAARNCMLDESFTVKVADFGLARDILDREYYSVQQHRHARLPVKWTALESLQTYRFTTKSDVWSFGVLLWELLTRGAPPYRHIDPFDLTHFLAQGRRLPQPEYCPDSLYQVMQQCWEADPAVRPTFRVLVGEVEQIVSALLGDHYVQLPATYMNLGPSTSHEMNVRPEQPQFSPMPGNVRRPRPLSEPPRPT

Consider `Nc1nc2[nH]nc(-c3ccccc3)c2s1`, for which, at cAbl, the IC50 was in the range of 11 to 100 µM.
Still for that read-out and setting: with `O=C(Nc1nc2[nH]nc(-c3cccc(Cl)c3)c2s1)c1ccccc1` the figure was 1 to 10 µM; with `O=C(Nc1nc2[nH]nc(-c3ccccn3)c2s1)c1ccccc1`, 11 to 100 µM.
Turning to `COc1ccc(-c2n[nH]c3nc(NC(=O)c4ccccc4)sc23)cc1`, at cAbl, the IC50 is 11 to 100 µM.
Same read-out and setting: the same measure for `O=C(Cc1cccs1)Nc1nc2[nH]nc(-c3ccccc3)c2s1`: below 1 µM.
On to `CC(=O)Nc1nc2[nH]nc(-c3ccccc3Cl)c2s1`, for which the IC50 (in experiment [1]; against Abl Y393F) was above 1 µM each time.
On to `O=C(Nc1nc2[nH]nc(-c3ccccc3)c2s1)c1cccs1`, for which the IC50 (in experiment [1]; against Abl Y393F) was 0.5 to 1 µM each time.
Turning to `O=C(Nc1nc2[nH]nc(-c3cccc(Br)c3)c2s1)c1ccccc1`, the concentration for half-maximal inhibition (IC50) (in experiment [1]; against Abl Y393F) was above 1 µM throughout.
Turning to `COCC(=O)Nc1nc2[nH]nc(-c3ccccc3)c2s1`, the concentration for half-maximal inhibition (IC50) (in experiment [1]; on Abl Y393F) was above 1 µM in each case.
Consider `CC(C)C(=O)Nc1nc2[nH]nc(-c3ccccc3Cl)c2s1`, for which the half-maximal inhibitory concentration (IC50) at wild type MET kinase was below 5 µM; in experiment [2] it was 5 to 20 µM.
The corresponding values for `COc1cccc(OC)c1C(=O)Nc1nc2[nH]nc(-c3ccccc3Cl)c2s1` are 5 to 20 µM and 5 to 20 µM.
The corresponding values for `CC(=O)O[C@@H](C)C(=O)Nc1nc2[nH]nc(-c3ccccc3Cl)c2s1` are above 20 µM and above 20 µM.
For `O=C(Nc1nc2[nH]nc(-c3ccccc3)c2s1)c1ccco1` [drawing 264], on cAbl, the IC50 was below 1 µM.
On to `O=C(Nc1nc2[nH]nc(-c3ccccc3Cl)c2s1)C1CC1` [drawing 266], for which the half-maximal inhibitory concentration (IC50) (in experiment [1]; at Abl Y393F) was below 0.5 µM in each case.
For `O=C(Nc1nc2[nH]nc(-c3ccccc3Br)c2s1)C1CC1` [drawing 267], the IC50 (in experiment [1]; at Abl Y393F) was below 0.5 µM each time.
For the compound `O=C(Nc1nc2[nH]nc(-c3ccccc3)c2s1)c1ccco1` [drawing 268], the IC50 (in experiment [1]; against Abl Y393F) was below 0.5 µM in each case.
For the compound `COc1ccc(-c2n[nH]c3nc(NC(=O)C4CC4)sc23)cc1` [drawing 271], the half-maximal inhibitory concentration (IC50) was 0.5 to 1 µM in experiment [1] and above 1 µM against Abl Y393F.
As for `O=C(Nc1nc2[nH]nc(-c3ccc(O)cc3)c2s1)C1CC1` [drawing 274], the IC50 on wild type MET kinase was below 5 µM; in experiment [2], 5 to 20 µM.
`O=C(Nc1nc2[nH]nc(-c3ccccc3Cl)c2s1)C1CC1` [drawing 276]: the IC50 against wild type MET kinase was below 5 µM; in experiment [2], 5 to 20 µM.
Consider `O=C(Nc1nc2[nH]nc(-c3ccccc3Br)c2s1)C1CC1` [drawing 278], for which the half-inhibitory concentration (IC50) against wild type MET kinase was 5 to 20 µM; in experiment [2], above 20 µM.
For the compound `COc1ccc(-c2n[nH]c3nc(NC(=O)C4CC4)sc23)cc1` [drawing 280], the half-inhibitory concentration (IC50) (against wild type MET kinase; in experiment [2]) was above 20 µM in each case.
